# Measurements taken from patent US20260242768A1, “ACETYL-COENZYME A CARBOXYLASE MUTANTS” (CIBUS US LLC, priority 2023, published 2026).
# Assays:
# [1] = system: rice (Oryza sativa) plastidal ACCase; experiment: Clethodim tolerance of rice ACCase mutations, yeast complementation assay (Examples 1-3); type: cell-based; conditions: for clethodim tolerance: ACCase mutation tested with the herbicide clethodim; for clethodim tolerance of combined mutations compared with single mutation(s) or parent mutant: double/triple mutants vs single mutations; for effect on clethodim tolerance of the single D2078G mutation: mutation added to D2078G
# Excerpt: Joachimiak M. et al Proc Natl Acad Sci U.S.A. 1997 Sep. 2; 94 (18): 9990-5 and WO/2013/074524 and WO/2013/074524 each describe methods to complement a yeast (Saccharomyces cerevisiae) strain lacking the native acc1 gene with either a wt or mutated form of a chimeric plastidal ACCase gene from a plant such as rice (Oryza sativa). Methods to introduce one or more mutations listed herein into the chimeric ACCase gene and subsequently complement the acc1 lacking yeast strain are well known by an individual skilled in the art. In the art assays are known for measuring tolerance of a mutated plant ACCase gene versus a herbicide that is a member of the aryloxyphenoxypropanoate, cyclohexanedione, and/or phenylpyrazoline families of herbicides such as clethodim, sethoxydim, fluazifop, haloxyfop, quizalofop, and pinoxaden (Joachimiak M. et al Proc Natl Acad Sci U.S.A. 1997 Sep. 2; 94 (18): 9990-5 and WO/2013/074524).
# A library of random mutations in the rice (Oryza sativa) plastidal ACCase gene was generated and screened for clethodim tolerant clones using a yeast complementation assay.
# [2] = system: O. sativa ACCase; experiment: Growth of Saccharomyces cerevisiae pseudodiploid acc1Δ strains carrying wild-type or mutant OsACCase plasmids, streaked onto plates with increasing concentrations of clethodim (Examples 5, 7, 10; Tables 8, 12); type: cell-based, Oryza sativa; design: key to growth, 0 mM clethodim / growth, 0.025 mM clethodim / growth, 0.1 mM clethodim / growth, 0.25 mM clethodim / growth, 0.5 mM clethodim / growth, 1 mM clethodim: ++ = Strong growth; + = Poor growth; − = No growth; key to relative growth phenotype, 0.5 mM clethodim / relative growth phenotype, 1 mM clethodim / relative growth phenotype, 2 mM clethodim / relative growth phenotype, highGal / relative growth phenotype, lowGal / relative growth phenotype, 0.05 mM clethodim / relative growth phenotype, 0.1 mM clethodim / relative growth phenotype, 0.25 mM clethodim: +++ high growth; ++ moderate growth; + low to negligible growth; (−) some cell debris, no growth; − no growth or cell debris
# Excerpt: Mutations at position N2097S and V2098A were combined to determine if point mutations at both positions gave increased resistance compared to either single point mutation. Each of these respective mutations (N2097S, V2098A and N2097S/V2098A) were generated by standard methods and introduced into a Saccharomyces cerevisiae pseudodiploid acc1Δ strain with a plasmid containing wild-type O. sativa ACCase gene. Once each of these mutations were introduced by recombination mediated mutagenesis, the OsACCase wild-type plasmid was removed, and mutation strains were confirmed by sequencing. The three strains, along with a series of controls including a WT strain (negative control), an I1781L mutant strain, and a D2078G mutant strain (positive control), were streaked onto plates with increasing concentrations of clethodim. […] These observations argue that N2097S is an enhancer of V2098A tolerance.
# Edits at position S1784N and A1785G were combined to determine if point mutations at both of these two positions gave increased resistance compared to either single point mutation. Each of these respective mutations (S1784N, A1785G and S1784N/A1785G) were generated by standard methods and introduced into a Saccharomyces cerevisiae pseudodiploid acc1Δ strain with a plasmid containing wild-type O. sativa ACCase gene. Once each of these mutations were introduced by recombination mediated mutagenesis, the OsACCase wild-type plasmid was removed, and mutation strains were confirmed by sequencing. The three strains, along with a series of controls including a WT strain (negative control), an I1781L mutant strain, a D2078G mutant strain (positive control), and a V2075L mutant strain were streaked onto plates with increasing concentrations of clethodim.
# Each of these respective mutations (D2078G, P2083T, D2078G/P2083T) were generated by standard methods and introduced into a Saccharomyces cerevisiae pseudodiploid acc14 strain with a plasmid containing the wild-type O. sativa ACCase gene. Once plasmids bearing each of these mutations, introduced using recombination-mediated mutagenesis, the OsACCase wild-type plasmid was removed, and strains bearing each mutant plasmid were confirmed by sequencing. The three strains, along with a series of controls including a wild-type strain (negative control), an I1781L mutant strain (medium control), and a pre-existing D2078G mutant strain (positive control) were streaked onto plates with increasing concentrations of clethodim.
# [3] = plates with increasing clethodim, 0.01% galactose
substance,measurement,setting,value
"C2088M: mutated ACCase, numbering per SEQ ID NO: 2",clethodim tolerance,[1],produces measurable tolerance
"D1681E: mutated ACCase, numbering per SEQ ID NO: 2",clethodim tolerance,[1],measurable clethodim tolerance
"D1681G: mutated ACCase, numbering per SEQ ID NO: 2",clethodim tolerance,[1],measurable clethodim tolerance
D2078G/N2097S: double mutant ACCase,clethodim tolerance of combined mutations compared with single mutation(s) or parent mutant,[1],"either less, or no more, tolerant than the single D2078G, V2075L and V2098A mutations"
L1543F-D1681E: double mutant ACCase,clethodim tolerance of combined mutations compared with single mutation(s) or parent mutant,[1],increased clethodim tolerance compared to any one mutation alone
L1543F-D1681G: double mutant ACCase,clethodim tolerance of combined mutations compared with single mutation(s) or parent mutant,[1],increased clethodim tolerance compared to any one mutation alone
"L1543F: mutated ACCase, numbering per SEQ ID NO: 2",clethodim tolerance,[1],measurable clethodim tolerance
L1543V-D1681E: double mutant ACCase,clethodim tolerance of combined mutations compared with single mutation(s) or parent mutant,[1],increased clethodim tolerance compared to any one mutation alone
L1543V-D1681G: double mutant ACCase,clethodim tolerance of combined mutations compared with single mutation(s) or parent mutant,[1],increased clethodim tolerance compared to any one mutation alone
"L1543V: mutated ACCase, numbering per SEQ ID NO: 2",clethodim tolerance,[1],measurable clethodim tolerance
"L1818H: mutated ACCase, numbering per SEQ ID NO: 2",clethodim tolerance,[1],measurable clethodim tolerance
"L1818I: mutated ACCase, numbering per SEQ ID NO: 2",clethodim tolerance,[1],measurable clethodim tolerance
M1974T-D2078G: double mutant ACCase,clethodim tolerance of combined mutations compared with single mutation(s) or parent mutant,[1],tolerance that is similar to the corresponding original triple mutants
"M1974T: mutated ACCase, numbering per SEQ ID NO: 2",clethodim tolerance,[1],neither R1672I nor M1974T alone provide measurable tolerance
same,effect on clethodim tolerance of the single D2078G mutation,[1],increase tolerance of the single D2078G mutation
"M1975T: mutated ACCase, numbering per SEQ ID NO: 2",effect on clethodim tolerance of the single D2078G mutation,[1],neither M1975T nor M2257I provide detectable clethodim tolerance increase to the single D2078G mutation
N2097S/V2098A: double mutant ACCase,tolerance/resistance of double mutant compared with single mutation(s),[2]; [3],notably increased compared to the V2098A change alone
"P2083T: mutated ACCase, numbering per SEQ ID NO: 2","growth, 0 mM clethodim","[2]; Table 12, plate with 0 mM clethodim, galactose 0.01%",++
same,"growth, 0.025 mM clethodim","[2]; Table 12, plate with 0.025 mM clethodim, galactose 0.01%",−
same,"growth, 0.1 mM clethodim","[2]; Table 12, plate with 0.1 mM clethodim, galactose 0.01%",−
same,"growth, 0.25 mM clethodim","[2]; Table 12, plate with 0.25 mM clethodim, galactose 0.01%",−
same,"growth, 0.5 mM clethodim","[2]; Table 12, plate with 0.5 mM clethodim, galactose 0.01%",−
same,"growth, 1 mM clethodim","[2]; Table 12, plate with 1 mM clethodim, galactose 0.01%",−
same,growth on clethodim plates (in words),[2]; [3],unable to grow on all concentrations of clethodim tested
R1672I-D2078G: double mutant ACCase,clethodim tolerance of combined mutations compared with single mutation(s) or parent mutant,[1],tolerance that is similar to the corresponding original triple mutants
R1672I/M1975T/D2078G: triple mutant ACCase clone,clethodim tolerance of combined mutations compared with single mutation(s) or parent mutant,[1],increased clethodim tolerance compared to the single D2078G mutation
"R1672I: mutated ACCase, numbering per SEQ ID NO: 2",clethodim tolerance,[1],neither R1672I nor M1974T alone provide measurable tolerance
same,effect on clethodim tolerance of the single D2078G mutation,[1],increase tolerance of the single D2078G mutation
S1784N/A1785G: double mutant ACCase,clethodim concentrations on which the strain grew,"[2]; Example 7, plates with increasing clethodim, 0.01% galactose",up to 1 mM
same,"relative growth phenotype, 0.05 mM clethodim","[2]; plate with 0.05 mM clethodim, galactose 0.01%",+++
same,"relative growth phenotype, 0.1 mM clethodim","[2]; plate with 0.1 mM clethodim, galactose 0.01%",+++
same,"relative growth phenotype, 0.25 mM clethodim","[2]; plate with 0.25 mM clethodim, galactose 0.01%",+++
same,"relative growth phenotype, 0.5 mM clethodim","[2]; plate with 0.5 mM clethodim, galactose 0.01%",+++
same,"relative growth phenotype, 1 mM clethodim","[2]; plate with 1 mM clethodim, galactose 0.01%",+
same,"relative growth phenotype, 2 mM clethodim","[2]; plate with 2 mM clethodim, galactose 0.01%",(−)
same,tolerance/resistance of double mutant compared with single mutation(s),[2]; [3],superior in terms of resistance to either individual mutation
same,"relative growth phenotype, highGal","[2]; yeast acc1Δ strain with OsACCase plasmid, high galactose plate, no clethodim",+++
same,"relative growth phenotype, lowGal","[2]; yeast acc1Δ strain with OsACCase plasmid, low galactose plate, no clethodim",+++
